Assay results taken from patent US20090220996A1, “In vitro Assay Methods for Classifying Embryotoxicity of Compounds” (RELIANCE LIFE SCIENCES PVT LTD., priority 2007, published 2009).
Values after ≈ are worked out from the molar mass of the structure shown. Like-named read-outs stand apart in the source and are kept apart here.

Columns and labels:
[1] = test system: 3T3 (mouse fibroblast cell line); conditions: Table 4; from the EST (Genschow, et al., 2000); cited from earlier work
mouse ES cells = conditions: Table 4; from the EST (Genschow, et al., 2000); cited from earlier work
[2] = test system: human embryoid bodies (hEBs); assay: Morphological evaluation of embryoid bodies (photomicrographs); type: cell-based; conditions: day 7 hEBs; FIG. 4A-4D
Method: Hanging drops were made in hES media with LIF and bFGF for calculating IC50-hES cells, and in hES media without LIF and bFGF (hEB media) for the formation of EBs. On day 3 the hES colonies were collected along with the respective test compound concentration, whereas the hEBs were collected and transferred to 60 mm bacteriological petri plates for another 2 days. Morphology of the EBs was monitored under the microscope for the formation of EBs. On day 5 the hEBs were plated in a 96 well plate for MTT, as well as on a 6 well plate for RNA extraction. The media along with the appropriate test compound concentration was replaced in the 96 well and 6 well plates on days 7, 9, 11, and 13. On day 15, MTT was performed on the hES plate and the differentiated EBs. RNA was extracted from all the concentrations of 5-fluorouracil, and 1 μg of RNA was converted to cDNA to perform RT-PCR, real time PCR, or TLDA.

[3] = test system: human embryoid bodies (hEB); assay: Cytotoxicity in human embryoid bodies, day 15 (MTT / CyQUANT); conditions: for IC50: Homo sapiens
Method: In general, the presently disclosed embryotoxicity testing protocols comprise the following sequence of steps. Studies using embryoid bodies generally comprise: a) preparation of various concentrations of test solutions in culture medium or a desired solvent; b) preparation of a cell suspension by enzymatic digestion of human embryonic stem cell colonies; c) culturing the cell suspension for formation of embryoid bodies in the presence and absence of one or more test solutions, and incubation for several days (e.g., three days) in hanging drops; d) cultivation of the embryoid bodies in bacteriological petri dishes for several days (e.g., two days) under controlled conditions; e) transfer of the embryoid bodies into 96 well plates and incubation for several days (e.g., 10 days) in the presence of one or more test solutions; and f) detection of the viability of the embryoid bodies after 15 days by MTT assay, or fluorescent or luminescent method, and isolation of RNA for studying gene expression. Studies using human foreskin fibroblasts (HFF) generally comprise: a) preparation of various concentrations of test solutions in culture medium or a desired solvent; b) plating of HFF cells in 96 well plates in the presence or absence of one or more test solutions for 15 days, changing the media and test solutions every 2 days; and c) detection of the viability of HFF after 15 days by MTT assay, or fluorescent or luminescent method. Studies using human embryonic stem cells generally comprise: a) preparation of various concentrations of test solutions in culture medium or a desired solvent; b) preparation of hES colonies by manual passage in the presence and absence of one or more test solutions, and incubation for 15 days on matrigel coated plates changing the media and test solutions every 2 days; c) disruption of the colonies after 15 days with enzymes to form single cells; d) labeling of single cells with a fluorescently-labeled dye, such as propidium iodide (“PI”); and e) detection of the percentage viability with FACS as a measure of cytotoxicity.
The culturing of the cell suspension is done by dispensing about ¼ of the cell suspension along with test chemicals on the inner side of a 100 mm bacteriological petri dish. Around 50-80 drops are dispensed for each concentration, the untreated control, and the solvent control. The lid is turned carefully into its regular position and is put on top of a petri dish containing 5 ml of phosphate buffered saline (“PBS”). The “hanging drops” are incubated for three days in a humidified atmosphere with 5% CO2 at 37° C.
On day 3, 5 ml of freshly prepared test solution is added to the lid of the “hanging drops” petri dish. The embryoid bodies are carefully transferred from the lid of the “hanging drops” petri dish to a 60 mm bacteriological petri dish. The suspension is cultivated for two days in a humidified atmosphere with 5% CO2 at 37° C.
On the 5th day, the EBs are transferred into 96 well plates by placing 10 EBs in each well. About 150 μl of freshly prepared test solution is added to each well, and three wells are used for each concentration. The 96 well plates are incubated for […] in a humidified atmosphere with 5% CO2 at 37° C. The remaining EBs are plated on a 24 well plate coated with 0.2% gelatin and allowed to differentiate. Media was replaced every second day until day 15.
On the 15th day, an MTT assay is performed. MTT solution (5 mg/ml) is prepared in culture medium containing test chemical. The MTT solution is added to all wells and incubated at 37° C. in a humidified atmosphere of 5% CO2 for 4 hours, after which the MTT desorb solution (acidified isopropanol) is added to each well. The plate is shaken on a micrometer plate for 15 minutes to dissolve the formazan. The absorbance is measured at 550-570 nm in a microtiter plate reader using 630 nm as a reference wavelength.

[4] = Table 5; cited from earlier work
[5] = test system: human embryonic stem cells (hES); assay: Cytotoxicity in undifferentiated human embryonic stem cells, day 15 (FACS with PI / CyQUANT); type: cell-based; conditions: Homo sapiens, Embryonic stem cell
Method: In general, the presently disclosed embryotoxicity testing protocols comprise the following sequence of steps. Studies using embryoid bodies generally comprise: a) preparation of various concentrations of test solutions in culture medium or a desired solvent; b) preparation of a cell suspension by enzymatic digestion of human embryonic stem cell colonies; c) culturing the cell suspension for formation of embryoid bodies in the presence and absence of one or more test solutions, and incubation for several days (e.g., three days) in hanging drops; d) cultivation of the embryoid bodies in bacteriological petri dishes for several days (e.g., two days) under controlled conditions; e) transfer of the embryoid bodies into 96 well plates and incubation for several days (e.g., 10 days) in the presence of one or more test solutions; and f) detection of the viability of the embryoid bodies after 15 days by MTT assay, or fluorescent or luminescent method, and isolation of RNA for studying gene expression. Studies using human foreskin fibroblasts (HFF) generally comprise: a) preparation of various concentrations of test solutions in culture medium or a desired solvent; b) plating of HFF cells in 96 well plates in the presence or absence of one or more test solutions for 15 days, changing the media and test solutions every 2 days; and c) detection of the viability of HFF after 15 days by MTT assay, or fluorescent or luminescent method. Studies using human embryonic stem cells generally comprise: a) preparation of various concentrations of test solutions in culture medium or a desired solvent; b) preparation of hES colonies by manual passage in the presence and absence of one or more test solutions, and incubation for 15 days on matrigel coated plates changing the media and test solutions every 2 days; c) disruption of the colonies after 15 days with enzymes to form single cells; d) labeling of single cells with a fluorescently-labeled dye, such as propidium iodide (“PI”); and e) detection of the percentage viability with FACS as a measure of cytotoxicity. […]
After 2 hours incubation, 150 μl of assay medium containing the appropriate concentration of test chemical (150 μl volume contains 1.333× the final chemical concentration) was added. Appropriate blanks without the chemicals were used along with the test samples The cell cultures were incubated at 5% CO2 and 37° C. for 3 days. On day 3, test solution was removed with the care, so that the cell layer on the bottom of the wells was not disturbed. Next, 200 μl of freshly prepared test solution (final concentration/well as on day 0) was added, and the cell cultures were incubated at 5% CO2 and 37° C. for 3 days. This process was repeated on days 6, 9, and 12. Determination of cell growth inhibition was performed at day 15 of the assay using MTT reagent. Cytotoxicity for hES cells was calculated using flow cytometry. Briefly, cells were placed on matrigel coated plates along with different test compound concentrations. Media was replaced every 3 days along with the different test compound concentrations. At day 15, hES cells were collected by trypsinization, and after washing with PBS, the cells were incubated with PI for 10 minutes in the dark. Percent viability for various test compound concentrations was calculated using flow cytometry.
Cytotoxicity analysis of three cell types (hES, hEBs and HFF) was evaluated using the CyQUANT assay following compound treatment. All data were the mean of three independent experiments for each cell type. Data is represented as the mean±SE.

## O=C1NS(=O)(=O)c2ccccc21 [Saccharin, saccharin]
[1]
  Mouse EST IC50 - 3T3: 3000 µg/mL
Mouse ES cells
  Mouse EST IC50 - mES: 3498 µg/mL
[2]
  concentration required to elicit a similar morphological response (loss of compactness, decreased EB size): 5000 μg/ml
[3]; 360 h, read-out: IC50-hEB
  IC50: 1550 ± 34.5 µg/mL (≈ 8.44 mM)
[3]; read-out: IC50-hEBs
  IC50: 1550 µg/mL (≈ 8.44 mM)
[3]; hEBs, 1000 μg/ml, CyQUANT, FIG. 4A/4B
  cell survival: about 60%
[4]
  General toxicity: Obesity
[5]; 360 h, Table 3, mean of 3 experiments, day 15, read-out: IC50-hES
  IC50: 1920 ± 22.5 µg/mL (≈ 10.5 mM)
[5]; Table 4, CyQuant cell viability assay, read-out: Human EST IC50 - hES
  IC50: 1920 ± 22.5 µg/mL (≈ 10.5 mM)
